Structures can show the parent of a compound that is named as a salt.
Tests used:
[1] = biological target: T1, human recombinant PTP1B (hPTP1B) (Homo sapiens, UniProt P18031); assay: Inhibition of tri-phosphorylated insulin receptor dodecaphosphopeptide dephosphorylation by hPTP1B (malachite green phosphate detection); type: biochemical; conditions: for IC50: recombinant PTP1B, insulin receptor 1142-1153 triphosphopeptide substrate, 37° C., 30 min, pH 7.4; for inhibition at 1 µM: compound at 1.0 μM, percent of phosphatase control
T1 construct: made in house
T1 sequence (P18031 1-435): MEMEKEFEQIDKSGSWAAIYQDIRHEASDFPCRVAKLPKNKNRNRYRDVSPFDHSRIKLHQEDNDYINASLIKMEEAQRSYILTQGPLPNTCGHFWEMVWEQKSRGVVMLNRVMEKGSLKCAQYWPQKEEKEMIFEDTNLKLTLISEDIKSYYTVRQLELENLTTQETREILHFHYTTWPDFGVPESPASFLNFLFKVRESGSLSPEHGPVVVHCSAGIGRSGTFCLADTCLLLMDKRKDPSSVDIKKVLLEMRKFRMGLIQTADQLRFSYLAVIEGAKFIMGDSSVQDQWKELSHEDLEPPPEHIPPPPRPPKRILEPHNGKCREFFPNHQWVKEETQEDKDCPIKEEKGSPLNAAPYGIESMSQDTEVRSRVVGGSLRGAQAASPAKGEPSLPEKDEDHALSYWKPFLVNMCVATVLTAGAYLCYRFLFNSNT

melting point | IC50 [1] | Molecule | % inhibition @ 0.5 μM [1] | inhibition at 1 µM [1]
– | – | 4-[4-(2-Butyl-benzofuran-3-carbonyl)-phenylsulfonyl]-2-hydroxy-benzoic acid [Example 16] | 22.81% inhibition @ 0.5 μM | –
211 to 212 °C | – | CCc1oc2ccccc2c1C(=O)c1cc(-c2ccccc2)c(OS(=O)(=O)c2ccc(C(=O)O)c(O)c2)c(-c2ccccc2)c1 (as salt: sodium) [Example 6, 4-[5′-(2-Ethyl-benzofuran-3-carbonyl)-[1,1′: 3′,1″]terphenyl-2′-yloxysulfonyl-]2-hydroxy-benzoic acid sodium salt] | – | –
173 °C | 251 nM | CCc1oc2ccccc2c1C(=O)c1cc(Br)c(OS(=O)(=O)c2ccc(C(=O)O)c(O)c2)c(Br)c1 [Example 1, 4-[2,6-Dibromo-4-(2-ethyl-benzofuran-3-carbonyl)-phenoxysulfonyl]-2-hydroxy-benzoic acid] | – | –
190 to 197 °C | 130 nM | CCCCc1oc2ccccc2c1C(=O)c1cc(-c2ccccc2)c(OS(=O)(=O)c2ccc(C(=O)O)c(O)c2)c(-c2ccccc2)c1 [Example 2, 4-[5′-(2-Butyl-benzofuran-3-carbonyl)-[1,1′; 3′1″]terphenyl-2′-yloxysulfonyl]-2-hydroxy-benzoic acid] | – | –
166 to 167 °C | 421 nM | CCc1oc2ccccc2c1C(=O)c1cc(C)c(OS(=O)(=O)c2ccc(C(=O)O)c(O)c2)c(C)c1 [Example 3, 4-[4-(2-Ethyl-benzofuran-3-carbonyl)-2,6-dimethyl-phenoxysulfonyl]-2-hydroxy-benzoic acid] | – | –
200 to 201 °C | 559 nM | CCc1oc2ccccc2c1C(=O)c1cc(C(C)C)c(OS(=O)(=O)c2ccc(C(=O)O)c(O)c2)c(C(C)C)c1 [Example 4, 4-[4-(2-Ethyl-benzofuran-3-carbonyl)-2,6-diisopropyl-phenoxysulfonyl]-2-hydroxy-benzoic acid] | – | –
142 to 143 °C | 83 nM | Cc1oc(Cc2ccccc2)c(C(=O)c2cc(C(C)C)c(OS(=O)(=O)c3ccc(C(=O)O)c(O)c3)c(C(C)C)c2)c1C [Example 5, 4-[4-(2-Benzyl-4,5-dimethyl-furan-3-carbonyl)-2,6-diisopropyl-phenoxysulfonyl]-2-hydroxy-benzoic acid] | – | –
– | 256 nM | CCc1oc2ccccc2c1C(=O)c1cc(-c2ccccc2)c(OS(=O)(=O)c2ccc(C(=O)O)c(O)c2)c(-c2ccccc2)c1 [Example 6, 4-[5′-(2-Ethyl-benzofuran-3-carbonyl)-[1,1′: 3′,1″]terphenyl-2′-yloxysulfonyl-]2-hydroxy-benzoic acid sodium salt] | – | –
187 to 190 °C | 180 nM | Cc1cc(C(=O)c2c(Cc3ccccc3)oc(C)c2C)cc(-c2ccccc2)c1OS(=O)(=O)c1ccc(C(=O)[O-])c(O)c1.[Na+] [Example 7, 4-[5-(2-Benzyl4,5-dimethyl-furan-3-carbonyl)-3-methyl-biphenyl-2-yloxysulfonyl]-2-hydroxy-benzoic acid sodium salt] | – | –
130 to 135 °C | 75 nM | Cc1oc(Cc2ccc3ccccc3c2)c(C(=O)c2cc(C(C)C)c(OS(=O)(=O)c3ccc(C(=O)O)c(O)c3)c(C(C)C)c2)c1C [Example 8, 4-[4-(4,5-Dimethyl-2-naphthalen-2-ylmethyl-furan-3-carbonyl)-2,6-diisopropyl-phenoxysulfonyl]-2-hydroxy-benzoic acid] | – | –
90 to 95 °C | 83 nM | Cc1oc(Cc2ccccc2Br)c(C(=O)c2cc(C(C)C)c(OS(=O)(=O)c3ccc(C(=O)O)c(O)c3)c(C(C)C)c2)c1C [Example 9, 4-{4-[2-(2-Bromo-benzyl)-4.5-dimethyl-furan-3-carbonyl]-2.6-diisopropyl-phenoxysulfonyl}-2-hydroxy-benzoic acid] | – | –
148 °C | 226 nM | Cc1oc(Cc2cccc(Br)c2)c(C(=O)c2cc(C(C)C)c(OS(=O)(=O)c3ccc(C(=O)O)c(O)c3)c(C(C)C)c2)c1C [Example 10, 4-{4-[2-(3-Bromo-benzyl)-4.5-dimethyl-furan-3-carbonyl]-2.6-diisopropylphenoxysulfonyl}-2-hydroxy-benzoic acid] | – | –
165 to 168 °C | 99 nM | Cc1oc(Cc2ccc(Br)cc2)c(C(=O)c2cc(C(C)C)c(OS(=O)(=O)c3ccc(C(=O)O)c(O)c3)c(C(C)C)c2)c1C [Example 11, 4-{4-[2-(4-Bromo-benzyl)4,5-dimethyl-fuiran-3-carbonyl]-2,6-diisopropyl-phenoxysulfonyl}-2-hydroxy-benzoic acid] | – | –
57 to 59 °C | 183 nM | O=C(O)c1ccc(S(=O)(=O)Oc2ccc(CCc3c(Cc4ccccc4)sc4ccccc34)cc2)cc1O [Example 12, 4-{4-[2-(2-Benzyl-benzo[b]thiophen-3-yl)thyl]-phenoxysulfonyl}-2-hydroxy-benzoic acid] | – | –
188 to 192 °C | 267 nM | Cc1oc(Cc2ccc(Br)cc2)c(C(=O)c2ccc(OS(=O)(=O)c3ccc(C(=O)O)c(O)c3)c(C3CCCC3)c2)c1C [Example 13, 4-{4-[2-(4-Bromo-benzyl)4,5-dimethyl-furan-3-carbonyl]-2-cyclopentyl-phenoxysulfonyl}-2-hydroxy-benzoic acid] | – | –
93 to 95 °C | 60 nM | CCCCc1oc2ccccc2c1CCc1ccc(OS(=O)(=O)c2ccc(C(=O)O)c(O)c2)cc1 [Example 14, 4-{4-[2-(2-Butyl-benzofuran-3-yl)-ethyl]-phenoxysulfonyl}-2-hydroxy-benzoic acid] | – | –
75 to 77 °C | – | CCCCc1oc2ccccc2c1CNc1ccc(OS(=O)(=O)c2ccc(C(=O)O)c(O)c2)cc1 [Example 15, 4-{4-[(2-Butyl-benzofuran-3-ylmethyl)-amino]-phenoxysulfonyl}-2-hydroxy-benzoic acid] | – | 28.8%
80 to 85 °C | 643 nM | Cc1oc(Cc2ccccc2)c(C(=O)c2ccc(OS(=O)(=O)c3ccc(C(=O)O)c(O)c3)c(C3CCCC3)c2)c1C [Example 17, 4-[4-(2-Benzyl-4,5-dimethyl-furan-3-carbonyl)-2-cyclopentyl-phenoxysulfonyl]-2-hydroxy-benzoic acid] | – | –
70 to 77 °C | 404 nM | Cc1sc(Cc2ccccc2)c(C(=O)c2ccc(OS(=O)(=O)c3ccc(C(=O)O)c(O)c3)c(C3CCCC3)c2)c1C [Example 18, 4-[4-(2-Benzyl-4,5-dimethyl-thiophene-3-carbonyl)-2-cyclopentyl-phenoxysulfonyll-]2-hydroxy-benzoic acid] | – | –
143 to 147 °C | 633 nM | CCc1cc(C(=O)c2c(Cc3ccccc3)oc(C)c2C)cc(CC)c1OS(=O)(=O)c1ccc(C(=O)O)c(O)c1 [Example 19, 4-[4-(2-Benzyl-4,5-dimethyl-furan-3-carbonyl)-2.6-diethyl-phenoxysulfonyl]-2-hydroxy-benzoic acid] | – | –
165 to 170 °C | 148 nM | Cc1sc(Cc2ccc(Br)cc2)c(C(=O)c2ccc(OS(=O)(=O)c3ccc(C(=O)O)c(O)c3)c(C3CCCC3)c2)c1C [Example 20, 4-{4-[2-(4-Bromo-benzyl)4.5-dimethyl-thiophene-3-carbonyl]-2-cyclopentylphenoxysulfonyl}-2-hydroxy-benzoic acid] | – | –
72 to 82 °C | 371 nM | Cc1oc(Cc2ccccc2Br)c(C(=O)c2ccc(OS(=O)(=O)c3ccc(C(=O)O)c(O)c3)c(C3CCCC3)c2)c1C [Example 21, 4-{4-[2-(2-Bromo-benzyl)4,5-dimethyl-furan-3-carbonyl]-2-cyclopentyl-phenoxysulfonyl}-2-hydroxy-benzoic acid] | – | –
– | 8700 nM | Ammonium molybdate tetrahydrate [reference compound] | – | –

Molecule | melting point | IC50 [1] | % inhibition @ 0.5 μM [1] | inhibition at 1 µM [1]
CC(=O)Oc1cc(S(=O)(=O)Oc2ccc(C(=O)c3c(Cc4ccccc4)oc(C)c3C)cc2C2CCCC2)ccc1C(=O)O [Example 22, 2-Acetoxy4-[4-(2-benzyl-4,5-dimethyl-furan-3-carbonyl)-2-cyclopentyl-phenoxysulfonyl]-benzoic acid] | 55 to 90 °C | 508 nM | – | –
CC(=O)Oc1cc(S(=O)(=O)Oc2ccc(C(=O)c3c(Cc4ccccc4)sc(C)c3C)cc2C2CCCC2)ccc1C(=O)O [Example 23, 2-Acetoxy4-[4-(2-benzyl-4,5-dimethyl-thiophene-3-carbonyl)-2-cyclopentyl-phenoxysulfonyl]-benzoic acid] | 94 to 96 °C | 439 nM | – | –
CC(=O)Oc1cc(S(=O)(=O)Oc2ccc(C(=O)c3c(Cc4ccc(Br)cc4)sc(C)c3C)cc2C2CCCC2)ccc1C(=O)O [Example 24, 2-Acetoxy-4-{4-[2-(4-Bromo-benzyl)-4,5-dimethyl-thiophene-3-carbonyl]-2-cyclopentyl-phenoxysulfonyl}-benzoic acid] | 113 to 114 °C | 254 nM | – | –
CC(=O)Oc1cc(S(=O)(=O)Oc2ccc(C(=O)c3c(Cc4ccccc4Br)oc(C)c3C)cc2C2CCCC2)ccc1C(=O)O [Example 25, 2-Acetoxy-4-{4-[2-(2-Bromo-benzyl)-4,5-dimethyl-fuiran-3-carbonyl]-2-cyclopentyl-phenoxysulfonyl}-benzoic acid] | 79 °C | 241 nM | – | –
CCCCc1oc2ccccc2c1CCc1ccc(OS(=O)(=O)c2ccc(C(=O)O)c(OC(C)=O)c2)cc1 [Example 26, 2-Acetoxy-4-{4-[2-(2-butyl-benzofuran-3-yl)-ethyl]-phenoxysulfonyl}-benzoic acid] | 54 to 57 °C | – | – | 51.4%

Reference: patent publication US6683107B2, “Furans, benzofurans, and thiophenes useful in the treatment of insulin resistance and hyperglycemia” (Wyeth, priority 1998, dated 2004)
